# Literature values, collected in PMC6044708 (ACS Omega, 2016).
# What was measured:
# [1] = test system: S. aureus; conditions: Gram (+), ATCC strain; reference compound
# [2] = test system: B. subtilis; conditions: Gram (+), ATCC strain; reference compound
# [3] = test system: E. coli; conditions: Gram (−), ATCC strain; reference compound
# [4] = test system: P. aeruginosa; conditions: Gram (−), ATCC strain; reference compound
# [5] = test system: Gram-positive bacteria; conditions: comparison in words
Substance,MIC S. aureus [1] [µg/mL],MIC B. subtilis [2] [µg/mL],MIC E. coli [3] [µg/mL],MIC P. aeruginosa [4],activity compared with the parent compound teixobactin (1) [5],activity compared with Arg10–teixobactin (2) [5]
Arg10–teixobactin [Arg10–teixobactin (2)],2,0.5,64,no activity,1 order of magnitude less active,–
Lys10–teixobactin,–,–,–,–,–,more active
